Test results reported in patent US20120100361A1, “ANTISEPTIC COMPOSITION FOR ENGINEERING WOOD PRODUCTION, AND ENGINEERING WOOD” (SDS BIOTECH K.K., priority 2009, published 2012).

What was measured:
[1] = Test for miscibility with a phenol resin glue; assay type: physicochemical; set-up: key to Phenol resin status after 60 minutes: ∘: No change; x: Obvious increase in the viscosity was seen and it seems impossible to apply the composition onto the veneer sheet; conditions: 10% (w/w) solution added to phenol resin glue Deernol D-117 kneaded product; viscosity change visually observed for 60 minutes
Experimental: The following compounds, which are known to have wood preservative activity, are dissolved in methyl ethylene triglycol to reach a concentration of 10% (w/w) to thereby obtain a solution of each of the compounds.
1000 g of phenol resin-based glue Deernol D-117 (manufactured by Oshika Corporation), 70 g of wheat flour and 100 g of calcium carbonate were mixed and well kneaded. Each of the solutions of Example 1 and Comparative Example 1 to 25 was added to 17 g of the kneaded product and mixed well together. The viscosity change of the glue was visually observed for 60 minutes. […] Although a number of documents listed as the prior art documents and the like teach that quaternary ammonium compounds can be applied to the glue line treatment, it is clear that those compounds have a problem for practical use (Comparative Examples 3 and 4). On the other hand, it was confirmed that the other compounds including that of Example has no problem from the viewpoint of compatibility.

fungus cellar soil-bed [2] = experiment: Fungus cellar soil-bed test of preservative plywood (JIS K1571:2004); conditions: for Grade average of the decay damage of five test samples: plywood, six months, 25° C., grade 0 sound condition to 5 out of shape due to the decay
Experimental: (§1) 1000 g of urea melamine resin (PWP-60, manufactured by Oshika Corporation) was added to 180 g of wheat flour and fully kneaded to thereby obtain a kneaded product. 8 g of ammonium chloride was added as a hardening agent to the kneaded product, and a solution of each of the compounds of Example 1 and Comparative Example 1, 2 and 5 to 25 was further added thereto so that the final concentrations of the compound in the wood become 150, 100, 50 and 25 g/m^3 and kneaded. 18 g of the above kneaded product was applied onto each of the bonding plane of the three red lauan veneer sheets having an area of 30 x 30 cm and thickness of 0.85 mm/2.4 mm/0.85 mm. After bonding the three sheets to each other, the sheets were subjected to cold pressing at room temperature for 20 minutes and the thermal pressure of 120° C. (10 kgf/cm^2) was applied to the sheets for two minutes to obtain the target plywood. Each of the prepared plywood was processed into the size of 20×20×4.1 mm to serve as a test sample.
The preservative plywood was prepared in the same manner in Preparation Example 2. Each of the prepared plywood was processed into the size of 8.9 x 8.9×100 mm to serve as a test sample.
(§2) The samples of the plywood and LVL prepared in Preparation Examples 4 and 5 were evaluated by the fungus cellar soil-bed test according to JIS K1571:2004. The weather resistance operation and the test method for the antiseptic effect were performed according to the above test method. The test was carried out for six months setting the test temperature to 25° C. (because the grade average of the decay damage of the non-treated test samples exceeded 2.5 in six months). […] The effect in the glue line treatment was actually investigated with respect to a number of existing antiseptics, and it was confirmed that only epoxyconazole is suitable for the glue line treatment at a low concentration.

fungus cellar soil-bed [3] = experiment: Fungus cellar soil-bed test of preservative LVL (JIS K1571:2004); conditions: 25° C., grade 0 sound condition to 5 out of shape due to the decay
Experimental: (§3) 1000 g of the phenol resin-based glue Deernol D-117 (manufactured by Oshika Corporation), 70 g of wheat flour and 100 g of calcium carbonate were mixed and well kneaded. A solution of each of the compounds of Example 1 and Comparative Example 1, 2 and 5 to 25 was added to the kneaded product so that the final concentrations of the compound in the wood become 150, 100, 50 and 25 g/m^3 and further kneaded. 18 g of the above kneaded product was applied onto each of the surface of glue line of the three Radiata pine veneer sheets having an area of 30 x 30 cm and thickness of 3 mm. After bonding the three sheets to each other, the sheets were subjected to cold pressing at room temperature for 20 minutes and the thermal pressure of 140° C. (10 kgf/cm^2) was applied to the sheets for two minutes to obtain the target LVL. Each of the prepared LVL was processed into the size of 20×20×9 mm to serve as a test sample.
The preservative LVL was prepared in the same manner in Preparation Example 3. Each of the prepared LVL was processed into the size of 9×9×100 mm to serve as a test sample.
as §2

Trametes versicolor [4] = experiment: Test for antiseptic effects of preservative plywood (JIS K1571:2004); assay type: cell-based; conditions: plywood, urea melamine resin, Trametes versicolor
Experimental: as §1
(§4) The samples of the plywood and LVL prepared in Preparation Examples 2 and 3 were evaluated by the test for antiseptic effects for the drug pressure treatment according to JIS K1571:2004. The weather resistance operation and the test method for the antiseptic effect were performed according to the above test method.

Fomitopsis palustris [5] = experiment: as above; assay type: cell-based; conditions: for average rate of decrease in weight: plywood, urea melamine resin, Fomitopsis palustris
Experimental: as §1, §4

Trametes versicolor [6] = experiment: Test for antiseptic effects of preservative LVL (JIS K1571:2004); assay type: cell-based; conditions: phenol resin
Experimental: as §3, §4

Fomitopsis palustris [7] = experiment: as above; assay type: cell-based; conditions: phenol resin
Experimental: as §3, §4

[8] = treated amount 25 g/m^3, six months
[9] = treated amount 50 g/m^3, six months
[10] = treated amount 100 g/m^3, six months
[11] = treated amount 150 g/m^3, six months

| Structure (SMILES) | Phenol resin status after 60 minutes [1] | Grade average of the decay damage of five test samples (fungus cellar soil-bed [2]; treated amount 25 g/m^3) | Grade average of the decay damage of five test samples (fungus cellar soil-bed [2]; treated amount 50 g/m^3) | Grade average of the decay damage of five test samples (fungus cellar soil-bed [2]; treated amount 100 g/m^3) | Grade average of the decay damage of five test samples (fungus cellar soil-bed [2]; treated amount 150 g/m^3) | Grade average of the decay damage of five test samples (fungus cellar soil-bed [3]; [8]) | Grade average of the decay damage of five test samples (fungus cellar soil-bed [3]; [9]) | Grade average of the decay damage of five test samples (fungus cellar soil-bed [3]; [10]) | Grade average of the decay damage of five test samples (fungus cellar soil-bed [3]; [11]) | average rate of decrease in weight (Trametes versicolor [4]; treated amount 25 g/m^3) | average rate of decrease in weight (Trametes versicolor [4]; treated amount 50 g/m^3) | average rate of decrease in weight (Trametes versicolor [4]; treated amount 100 g/m^3) | average rate of decrease in weight (Trametes versicolor [4]; treated amount 150 g/m^3) | average rate of decrease in weight (Fomitopsis palustris [5]; treated amount 25 g/m^3) | average rate of decrease in weight (Fomitopsis palustris [5]; treated amount 50 g/m^3) | average rate of decrease in weight (Fomitopsis palustris [5]; treated amount 100 g/m^3) | average rate of decrease in weight (Fomitopsis palustris [5]; treated amount 150 g/m^3) | average rate of decrease in weight (Trametes versicolor [6]; treated amount 25 g/m^3) | average rate of decrease in weight (Trametes versicolor [6]; treated amount 50 g/m^3) | average rate of decrease in weight (Trametes versicolor [6]; treated amount 100 g/m^3) | also measured |
| --- | --- | --- | --- | --- | --- | --- | --- | --- | --- | --- | --- | --- | --- | --- | --- | --- | --- | --- | --- | --- | --- |
| Fc1ccc([C@]2(Cn3cncn3)O[C@H]2c2ccccc2Cl)cc1 (racemic) [Example 1, Epoxyconazole] | ∘ | 0.2 | 0 | 0 | 0 | 0.4 | 0 | 0 | 0 | ◯ (The average rate of decrease in weight was less than 3%.) | ◯ (The average rate of decrease in weight was less than 3%.) | ◯ (The average rate of decrease in weight was less than 3%.) | ◯ (The average rate of decrease in weight was less than 3%.) | ◯ (The average rate of decrease in weight was less than 3%.) | ◯ (The average rate of decrease in weight was less than 3%.) | ◯ (The average rate of decrease in weight was less than 3%.) | ◯ (The average rate of decrease in weight was less than 3%.) | ◯ (The average rate of decrease in weight was less than 3%.) | ◯ (The average rate of decrease in weight was less than 3%.) | ◯ (The average rate of decrease in weight was less than 3%.) | amount showing sufficient antiseptic effect (fungus cellar soil-bed [2]; fungus cellar soil-bed test, plywood and LVL, text summary of Tables 4 and 5): 25 to 50 g/m^3; amount showing sufficient antiseptic effect (Fomitopsis palustris [5]; glue line method, plywood and LVL, both fungi, summary of Tables 2 and 3): 25 to 50 g/m^3; average rate of decrease in weight (Trametes versicolor [6]; treated amount 150 g/m^3): ◯ (The average rate of decrease in weight was less than 3%.); average rate of decrease in weight (Fomitopsis palustris [7]; treated amount 25 g/m^3): ◯ (The average rate of decrease in weight was less than 3%.); average rate of decrease in weight (Fomitopsis palustris [7]; treated amount 50 g/m^3): ◯ (The average rate of decrease in weight was less than 3%.); average rate of decrease in weight (Fomitopsis palustris [7]; treated amount 100 g/m^3): ◯ (The average rate of decrease in weight was less than 3%.); average rate of decrease in weight (Fomitopsis palustris [7]; treated amount 150 g/m^3): ◯ (The average rate of decrease in weight was less than 3%.) |
| CO/C=C(/C(=O)OC)c1ccccc1Oc1cc(Oc2ccccc2C#N)ncn1 [Comparative Example 21, azoxystrobin] | ∘ | 3.0 | 3.0 | 3.0 | 2.8 | 3.0 | 3.6 | 3.4 | 2.8 | X (The average rate of decrease in weight was 3% or more.) | X (The average rate of decrease in weight was 3% or more.) | X (The average rate of decrease in weight was 3% or more.) | X (The average rate of decrease in weight was 3% or more.) | X (The average rate of decrease in weight was 3% or more.) | X (The average rate of decrease in weight was 3% or more.) | X (The average rate of decrease in weight was 3% or more.) | X (The average rate of decrease in weight was 3% or more.) | X (The average rate of decrease in weight was 3% or more.) | X (The average rate of decrease in weight was 3% or more.) | X (The average rate of decrease in weight was 3% or more.) | average rate of decrease in weight (Trametes versicolor [6]; treated amount 150 g/m^3): X (The average rate of decrease in weight was 3% or more.); average rate of decrease in weight (Fomitopsis palustris [7]; treated amount 25 g/m^3): X (The average rate of decrease in weight was 3% or more.); average rate of decrease in weight (Fomitopsis palustris [7]; treated amount 50 g/m^3): X (The average rate of decrease in weight was 3% or more.); average rate of decrease in weight (Fomitopsis palustris [7]; treated amount 100 g/m^3): X (The average rate of decrease in weight was 3% or more.); average rate of decrease in weight (Fomitopsis palustris [7]; treated amount 150 g/m^3): X (The average rate of decrease in weight was 3% or more.) |
| CCCCNC(=O)OCC#CI [Comparative Example 23, 3-iode-2-propynyl-n-butylcarbamate] | ∘ | 2.8 | 2.8 | 3.2 | 2.8 | 3.0 | 3.4 | 3.2 | 2.6 | X (The average rate of decrease in weight was 3% or more.) | X (The average rate of decrease in weight was 3% or more.) | X (The average rate of decrease in weight was 3% or more.) | X (The average rate of decrease in weight was 3% or more.) | X (The average rate of decrease in weight was 3% or more.) | X (The average rate of decrease in weight was 3% or more.) | X (The average rate of decrease in weight was 3% or more.) | X (The average rate of decrease in weight was 3% or more.) | X (The average rate of decrease in weight was 3% or more.) | X (The average rate of decrease in weight was 3% or more.) | X (The average rate of decrease in weight was 3% or more.) | average rate of decrease in weight (Trametes versicolor [6]; treated amount 150 g/m^3): X (The average rate of decrease in weight was 3% or more.); average rate of decrease in weight (Fomitopsis palustris [7]; treated amount 25 g/m^3): X (The average rate of decrease in weight was 3% or more.); average rate of decrease in weight (Fomitopsis palustris [7]; treated amount 50 g/m^3): X (The average rate of decrease in weight was 3% or more.); average rate of decrease in weight (Fomitopsis palustris [7]; treated amount 100 g/m^3): X (The average rate of decrease in weight was 3% or more.); average rate of decrease in weight (Fomitopsis palustris [7]; treated amount 150 g/m^3): X (The average rate of decrease in weight was 3% or more.) |
